{"source": "patent US20170114093A1", "about": "“Methods of Treatment and Prevention of Disease by Arginine-rich Compositions that Induce Cytoprotection and Neuroprotection” (priority 2015, published 2017)", "key": {"[1]": {"system": "SAPK/JNK", "assay": "Western blot of phospho-SAPK/JNK (cell death signaling) in OGD-treated primary neuronal cultures", "type": "cell-based, rat", "settings": "after OGD", "excerpt": "JNK signaling is widely considered to be an indicator of cell death signaling.\nDissociated primary neuronal cell cultures treated in the same manner as indicated in Example 2 were collected and their cells lysed. Cellular proteins were precipitated and denatured for immunohistochemical analysis by Western Blot. Phospho-SAPK/JNK ([…]) antibody detects endogenous levels of p46 and p54 SAPK/JNK dually phosphorylated at threonine 183 and tyrosine 185. Levels of The stress-activated protein kinase/Jun-amino-terminal kinase SAPK/JNK are widely considered to be molecular sequelae of the activation of cell death pathways that lead to apoptosis."}, "[2]": {"system": "primary rat cortical neurons", "assay": "Oxygen glucose deprivation (OGD, 90 min) of primary neuronal cultures, cell viability by MTT reduction", "type": "cell-based", "settings": "for level of protection from OGD, compared with Compound 4: 90 min OGD; for protection of cortical rat neurons from the impact of OGD (cell viability): pre-incubation 30 min before 90 min OGD, MTT", "description": "FIGS. 1 and 2 are histograms showing the cell viability of primary rat cortical neurons that had been exposed to ninety (90) minutes oxygen glucose deprivation. Pre-incubation of an arginine-rich polypeptide [RRRRRRRRR (SEQ ID: 4)]\nDissociated primary neuronal cell cultures were prepared from rat brains at 37° C. in a humidified atmosphere containing 5% CO2 and […] and grown to confluence in glucose-containing media. Indicated compounds were applied thirty (30) minutes before cultures were placed in an environment of oxygen glucose deprivation (OGD). OGD was achieved using glucose-free media and a humidified atmosphere containing 5% CO2 and 95% N2. OGD was continued for ninety (90) minutes and terminated by return to baseline conditions with glucose and O2 restored. Reduction of 3-(4,5-dimethyl-2-thiazolyl)-2,5-diphenyltetrazolium bromide (MTT) by cellular dehydrogenases measured mitochondrial activity and cell health. […] This model is a dissociated cell preparation, therefore vasculature is absent, therefore the activity of Compound 4 (SEQ ID NO: 4), an inventive Arginine rich polypeptide, is shown to be independent of changes to vascular tone and indicates protection from a novel mechanism of action."}}, "note": "“Also recorded” adds a separate entry of the source."}
{"compound": "C[C@@H]([C@@H](O)c1ccc(O)cc1)N1CCC(O)(c2ccccc2)CC1", "note": "[CP 101 606]", "values": [{"measurement": "level of JNK cell death signaling, compared with Compound 4 2 μM", "setting": "[1]; 10 μM", "value": "comparable"}, {"measurement": "level of protection from OGD, compared with Compound 4", "setting": "[2]; 10 μM", "value": "comparable"}]}
{"compound": "C[C@H](NC(c1cccc2[nH]c(=O)c(=O)[nH]c12)P(=O)(O)O)c1ccc(Br)cc1", "note": "(some centres unmarked) [NVPAAM077]", "values": [{"measurement": "level of JNK cell death signaling, compared with Compound 4 2 μM", "setting": "[1]; 100 nM", "value": "comparable"}, {"measurement": "level of protection from OGD, compared with Compound 4", "setting": "[2]; 100 nM", "value": "comparable"}]}
{"compound": "RRRRRRRRR (cell penetrating peptide) [Compound 4]", "values": [{"measurement": "p54 and p48 JNK cell death signaling (Western blot)", "setting": "[1]; 2 μM, p<0.05, n=3", "value": "significantly suppressed"}, {"measurement": "protection of cortical rat neurons from the impact of OGD (cell viability)", "setting": "[2]; 2 μM", "value": "significant protection"}, {"measurement": "protection of cortical rat neurons from the impact of OGD (cell viability)", "setting": "[2]; 10 μM", "value": "significant protection"}]}
{"compound": "CCRRRRRRR [Control peptide; cysteine-arginine peptide of the kind claimed in WO2013158739]", "values": [{"measurement": "protection of cortical rat neurons from the impact of OGD (cell viability)", "setting": "[2]; 2 μM", "value": "no significant neuroprotection; also recorded: no significant neuroprotective effect"}, {"measurement": "protection of cortical rat neurons from the impact of OGD (cell viability)", "setting": "[2]; 2 μM, listed as ccrrrrrrr", "value": "no significant neuroprotection; also recorded: no significant neuroprotective effect"}, {"measurement": "protection of cortical rat neurons from the impact of OGD (cell viability)", "setting": "[2]; 10 μM", "value": "no significant neuroprotection; also recorded: no significant neuroprotective effect"}, {"measurement": "protection of cortical rat neurons from the impact of OGD (cell viability)", "setting": "[2]; 10 μM, listed as ccrrrrrrr", "value": "no significant neuroprotection; also recorded: no significant neuroprotective effect"}]}
